Laboratory results: patent publication US20200383844A1, “ABSORBENT ARTICLE” (Kao Corporation, priority 2017, published 2020)

Key:
[1] = Surface tension of liquid film cleavage agent; format: physicochemical; details: 25° C., RH 65%
[2] = Spreading coefficient of liquid film cleavage agent; format: physicochemical; details: 25° C., RH 65%
From the text: (§1) Definitions of “spreading coefficient to the liquid having surface tension of 50 mN/m” and “water solubility” of the liquid film cleavage agent, as specified in the first aspect and the second aspect, and measuring methods of surface tension (γw) of a liquid film (liquid having surface tension of 50 mN/m), surface tension (γo) of a liquid film cleavage agent, interfacial tension (γwo) between the liquid film and the liquid film cleavage agent, and water solubility of the liquid film cleavage agent are as described in the paragraphs {0015} to {0022} in WO 2016/098796.
(§2) Hereinafter, the present invention will be described more in detail with reference to Examples, but the present invention is not limited thereto. In addition, both terms “part” and “%” in the Examples are based on mass unless otherwise noted. […]
(§3) On the occasion, as a “liquid having surface tension of 50 mN/m,” a solution was used, in which the solution was prepared by adding, to 100 g of deionized water, 3.75 μL of POE sorbitan monolaurate (trade name “RHEODOL Super TW-L120,” manufactured by Kao Corporation) being a nonionic surface active substance by a micropipette (trade name “ACURA 825,” manufactured by Socorex Isba SA), and adjusting the surface tension to 50±1 mN/m. Moreover, the water solubility was measured by adding the agent for every 0.0001 g.

[3] = From the text: as §1
Hereinafter, the present invention will be described more in detail with reference to Examples, but the present invention is not limited thereto. In addition, both terms “part” and “%” in the Examples are based on mass unless otherwise noted. […] In addition, a sign “-” in the following Tables means that neither an agent shown in a name of an item is used, nor the result has an applicable value in the item, or the like. Moreover, a leftward arrow “←” means that the content is the same as described in an adjacent column indicated by the arrow.
as §3

[4] = Interfacial tension of liquid film cleavage agent; format: physicochemical; details: 25° C., RH 65%
From the text: as §1, §2, §3

[5] = Viscosity of liquid film cleavage agent; format: physicochemical; details: 25° C., RH 65%, average of three
Method: First, 40 g of a liquid film cleavage agent is prepared. […] This operation is repeated three times, and an average value is adopted as the viscosity. In addition, when the liquid film cleavage agent is solid, the liquid film cleavage agent is heated to a temperature of a melting point of the liquid film cleavage agent plus 5° C. to induce phase transition into liquid, and the measurement is performed with keeping the temperature conditions.
As a result of measuring viscosity by the method shown in (Method for measuring viscosity of liquid film cleavage agent) described above, the viscosity of the liquid film cleavage agent was 163 cps.

| Substance | Surface tension [1] [mN/m] | Spreading coefficient to liquid having surface tension of 50 mN/m [2] [mN/m] | Water solubility [3] | Interfacial tension to liquid having surface tension of 50 mN/m [4] [mN/m] | Viscosity [5] [cps] |
| --- | --- | --- | --- | --- | --- |
| POP alkyl ether [POP(15) alkyl ether] | 31.8 | 5.4 | ← g | 12.8 | 129 |
| POP-modified dimethyl silicone [POP(12)-modified dimethyl silicone] | – | – | 0.025 or less g | – | – |
| PPG | – | – | 0.025 or less g | – | – |
| epoxy-modified dimethyl silicone | – | – | ← g | – | – |
